Source: the CheMixHub viscosity set

Assay: xn = mol fraction of the nth substance listed

CCN(CC)CCO + O
Conditions | viscosity [mPa·s]
293.15 K, 101 kPa, x1 = 0.062 | 4.536
298.15 K, 101 kPa, x1 = 0.062 | 3.689
298.15 K, 101.33 kPa, x1 = 0.0039 | 0.991
298.15 K, 101.33 kPa, x1 = 0.008 | 1.104
298.15 K, 101.33 kPa, x1 = 0.0121 | 1.233
298.15 K, 101.33 kPa, x1 = 0.0169 | 1.4
298.15 K, 101.33 kPa, x1 = 0.0261 | 1.752
298.15 K, 101.33 kPa, x1 = 0.0372 | 2.242
298.15 K, 101.33 kPa, x1 = 0.0602 | 3.439
298.15 K, 101.33 kPa, x1 = 0.0909 | 5.404
298.15 K, 101.33 kPa, x1 = 0.1326 | 8.287
298.15 K, 101.33 kPa, x1 = 0.1883 | 11.72
298.15 K, 101.33 kPa, x1 = 0.3136 | 15.25
298.15 K, 101.33 kPa, x1 = 0.4547 | 14.14
298.15 K, 101.33 kPa, x1 = 0.5001 | 13.45
298.15 K, 101.33 kPa, x1 = 0.6638 | 9.491
298.15 K, 101.33 kPa, x1 = 0.758 | 6.903
298.15 K, 101.33 kPa, x1 = 0.8765 | 5.478
298.15 K, 101.33 kPa, x1 = 0.9544 | 4.484
303.15 K, 100 kPa, x1 = 0.06181 | 3
303.15 K, 100 kPa, x1 = 0.09296 | 4.51
303.15 K, 101 kPa, x1 = 0.02641 | 1.53
303.15 K, 101 kPa, x1 = 0.062 | 3.048
303.15 K, 101 kPa, x1 = 0.1117 | 5.23
303.15 K, 101.33 kPa, x1 = 0.0039 | 0.885
303.15 K, 101.33 kPa, x1 = 0.008 | 0.98
303.15 K, 101.33 kPa, x1 = 0.0121 | 1.085
303.15 K, 101.33 kPa, x1 = 0.0169 | 1.219
303.15 K, 101.33 kPa, x1 = 0.0261 | 1.495
303.15 K, 101.33 kPa, x1 = 0.0372 | 1.887
303.15 K, 101.33 kPa, x1 = 0.0602 | 2.82
303.15 K, 101.33 kPa, x1 = 0.0909 | 4.364
303.15 K, 101.33 kPa, x1 = 0.1326 | 6.361
303.15 K, 101.33 kPa, x1 = 0.1883 | 8.984
303.15 K, 101.33 kPa, x1 = 0.3789 | 11.36
303.15 K, 101.33 kPa, x1 = 0.5883 | 8.745
303.15 K, 101.33 kPa, x1 = 0.6638 | 7.615
303.15 K, 101.33 kPa, x1 = 0.758 | 5.577
303.15 K, 101.33 kPa, x1 = 0.8765 | 4.459
303.15 K, 101.33 kPa, x1 = 0.9544 | 3.65
308.15 K, 101 kPa, x1 = 0.062 | 2.552
313.15 K, 100 kPa, x1 = 0.06181 | 2.13
313.15 K, 100 kPa, x1 = 0.09296 | 3.08
313.15 K, 101 kPa, x1 = 0.02641 | 1.18
313.15 K, 101 kPa, x1 = 0.06181 | 2.07
313.15 K, 101 kPa, x1 = 0.062 | 2.165
313.15 K, 101 kPa, x1 = 0.1117 | 3.5
313.15 K, 101.33 kPa, x1 = 0.0039 | 0.723
313.15 K, 101.33 kPa, x1 = 0.008 | 0.791
313.15 K, 101.33 kPa, x1 = 0.0121 | 0.866
313.15 K, 101.33 kPa, x1 = 0.0169 | 0.958
313.15 K, 101.33 kPa, x1 = 0.0261 | 1.149
313.15 K, 101.33 kPa, x1 = 0.0372 | 1.412
313.15 K, 101.33 kPa, x1 = 0.0602 | 2.016
313.15 K, 101.33 kPa, x1 = 0.0909 | 2.912
313.15 K, 101.33 kPa, x1 = 0.1326 | 4.179
313.15 K, 101.33 kPa, x1 = 0.1883 | 5.497
313.15 K, 101.33 kPa, x1 = 0.2629 | 6.627
313.15 K, 101.33 kPa, x1 = 0.3136 | 7.004
313.15 K, 101.33 kPa, x1 = 0.3789 | 7.054
313.15 K, 101.33 kPa, x1 = 0.4547 | 6.685
313.15 K, 101.33 kPa, x1 = 0.6638 | 4.668
313.15 K, 101.33 kPa, x1 = 0.758 | 3.694
313.15 K, 101.33 kPa, x1 = 0.8765 | 3.059
313.15 K, 101.33 kPa, x1 = 0.9544 | 2.639
318.15 K, 101 kPa, x1 = 0.062 | 1.86
323.15 K, 100 kPa, x1 = 0.06181 | 1.6
323.15 K, 101 kPa, x1 = 0.02641 | 0.93
323.15 K, 101 kPa, x1 = 0.06181 | 1.55
323.15 K, 101 kPa, x1 = 0.062 | 1.617
323.15 K, 101 kPa, x1 = 0.1117 | 2.51
